Read-outs that look alike come from different tables or passages of the source.
Tests used:
[1] = in vivo
Experimental: (§1) The pharmacokinetic study of Example 3 was continued with a second treatment group (cohort) to assess the pharmacokinetic profile of formulation F7 of Example 7 compared with that of formulation F2.
(§2) The following plasma pharmacokinetic parameters were calculated: AUClast, AUCinf, % AUCexp, Cmax, Clast, Tmax, Tlast, CL/F, Vz/F, and t1/2.
(§3) Pharmacokinetics: Individual subject concentration data and individual subject PK parameters for each analyte (compound of Formula 1, FTC, and TAF) were listed and summarized using descriptive statistics by treatment group (cohort) and treatment. Summary statistics were determined for both individual subject concentration data by time point, cohort, and treatment and individual subject PK parameters by cohort and treatment. Also, the geometric mean, 95% confidence interval (CI), and the mean, and standard deviation (SD) of the natural log-transformed values were presented for individual subject PK parameter data. The sample size for each time point was based on the number of subjects with nonmissing concentration data at that time point. The number of subjects with concentration below the level of quantitation (BLQ) was presented for each time point.
(§4) Statistical comparisons of the natural log-transformed PK parameters for each analyte and treatment comparison of interest were performed. The statistical modelling was based on the PK Analysis set for the analyte under evaluation. For each analyte, all subjects with available data for the PK parameter under evaluation were included in the modelling. The statistical comparisons using Treatment A as a reference only used data from this cohort, not from the earlier cohort of Example 3 (i.e., Treatment A was not pooled).
(§5) For each analyte and each PK parameter, a parametric (normal theory) mixed-effects ANOVA model was fitted to the natural log-transformed values of the PK parameter under evaluation. The statistical model included treatment as a fixed effect and subject as a random effect.

[2] = Physicochemical properties of the active ingredients (pKa, pH-dependent solubility and stability, BCS class); conditions: for pH of maximum solubility: pH-dependent solubility
[3] = Relative bioavailability and food-effect crossover study, cohort 1 (bilayer tablet F2 vs F1 co-administered with F3); conditions: for AUC(0-inf): AUCinf; for AUC(0-t): AUClast
Experimental: Studies were carried out to assess the pharmacokinetic profiles of the formulations F1, F2, and F3 of Examples 1, 2, and 2A. A randomized, open-label, multiple-period, fixed-sequence, crossover study was performed to evaluate the relative bioavailability of bilayer tablet formulation F2 compared with that of single agent tablet formulation F1 co-administered simultaneously with a fixed-dose combination tablet containing emtricitabine and tenofovir alafenamide (tablet formulation F3). The bioavailability was evaluated in healthy subjects.
The following plasma pharmacokinetic parameters were calculated: Cmax, AUClast, and AUCinf.
Pharmacokinetics: Plasma concentrations and PK parameters were listed and summarized by analyte and treatment group using descriptive statistics. In addition, a parametric analysis of variance using a mixed-effects model appropriate for a crossover design was fitted to the natural logarithmic transformation of the PK parameters (AUCinf, AUClast, and Cmax).

[4] = Pharmacokinetic study cohort 2 (bilayer tablet F7 vs F1 + F3; food effect on F7); conditions: for AUCinf, Mean (% CV) / AUClast, Mean (% CV) / Cmax, Mean (% CV): plasma;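 for all read-outs here: plasma PK parameters per analyte summarized descriptively, with GLSM ratios derived from mixed-effects ANOVA on ln-transformed values (treatment as fixed effect, subject as random effect)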
Experimental: as §1, §2, §3, §4, §5

[5] = Food effect on single dose Compound of Formula I 100 mg single agent tablet (8 subjects); type: in vivo, human; conditions: for AUC(0-inf) / AUC(0-t) / Cmax: human, plasma, oral, 100 mg, mean, Compound of Formula I 100 mg single agent tablet, n = 8
Experimental: In this study, a single dose of the compound of Formula I was administered in two periods with fixed sequence under fasted and fed conditions respectively. A washout of at least five half-lives was required between fasted and fed sequences.
Subjects continued to fast until 4 hours post dose or until collection of the 4-hour postdose blood sample.
The 90% CI for the geometric least square mean (GLSM) ratios for fast versus fed was constructed. The statistical comparison of the pharmacokinetic parameters of the compound of Formula 1 following single dose administration of this tablet formulation in fed and fasted states is presented in the table below.

[6] = Test F7 (50/200/25 mg) / Reference F1 + F3, fasted
[7] = F7 (50/200/25 mg), high fat meal, N = 27
[8] = F7 (50/200/25 mg), moderate fat meal, N = 27
[9] = Formulation F1 + F3 (75 mg + F/TAF 200/25 mg), fasted, Reference, N = 28, cohort 2
[10] = F2 (75/200/25 mg) high-fat meal / fasted
[11] = Test F2 (75/200/25 mg) / Reference F1 + F3, fasted
[12] = human, in vivo, plasma, mean, F1 Compound of Formula I (75 mg) + F3 F/TAF (200/25 mg) co-administered, fasted, Reference, N = 28, cohort 1
[13] = human, in vivo, plasma, mean, F2 Compound of Formula I/F/TAF (75/200/25 mg), high-fat meal, Test, N = 28
[14] = human, in vivo, plasma, mean, bilayer tablet F2 Compound of Formula I/F/TAF (75/200/25 mg), single dose, fasted, N = 28
[15] = human, plasma, oral, mean, F2 Compound of Formula I/F/TAF (75/200/25 mg), high-fat meal, Test, N = 28
[16] = human, plasma, oral, plasma, mean, F1 Compound of Formula I (75 mg) + F3 F/TAF (200/25 mg) co-administered, fasted, Reference, N = 28, cohort 1
[17] = 100 mg single dose, high-calorie/high-fat breakfast

## Nc1nc(=O)n([C@@H]2CS[C@H](CO)O2)cc1F [Emtricitabine, 4-amino-5-fluoro-1-[(2R,5S)-2-(hydroxymethyl)-1,3-oxathiolan-5-yl]-1,2-dihydropyrimidin-2-one]
[1]
  exposure of Formulation F7 compared with coadministered reference tablets: similar
[2]
  BCS class: BCS Class 1
  pKa: 2.65
  solubility (BCS classification): high solubility
[3]; human, in vivo
  geometric mean ratio of AUCinf (food effect): 1.00
  geometric mean ratio of Cmax (food effect): 0.83
[3]; in vivo
  exposure following F2 compared with F1 with the F/TAF FDC (F3): similar

## CC(C)OC(=O)[C@H](C)N[P@](=O)(CO[C@H](C)Cn1cnc2c(N)ncnc21)Oc1ccccc1 [Tenofovir alafenamide]
[4]; F7 high fat meal / fasted
  % GLSM Ratio (90% CI) of AUCinf: 166.55 (146.54, 189.29) %
  % GLSM Ratio (90% CI) of AUClast: 162.62 (143.10, 184.80) %
  % GLSM Ratio (90% CI) of Cmax: 91.71 (73.46, 114.49) %
[4]; F7 moderate fat meal / fasted
  % GLSM Ratio (90% CI) of AUCinf: 148.23 (130.42, 168.47) %
  % GLSM Ratio (90% CI) of AUClast: 148.20 (130.41, 168.41) %
  % GLSM Ratio (90% CI) of Cmax: 99.04 (79.33, 123.65) %
[4]; [6]
  % GLSM Ratio (90% CI) of AUCinf: 85.48 (75.33, 97.00) %
  % GLSM Ratio (90% CI) of AUClast: 85.37 (75.24, 96.85) %
  % GLSM Ratio (90% CI) of Cmax: 84.17 (67.59, 104.81) %
[4]; fasted
  Cmax lower for Formulation F7 than for the coadministered reference tablets: approximately 16%
  exposure of Formulation F7 compared with coadministered reference tablets: similar
[4]; [7]
  AUCinf, Mean (% CV): 318.4 (32.8) hr · ng/mL
  AUClast, Mean (% CV): 310.3 (34.9) hr · ng/mL
  Cmax, Mean (% CV): 236.6 (65.1) ng/mL
[4]; [8]
  AUCinf, Mean (% CV): 293.1 (40.9) hr · ng/mL
  AUClast, Mean (% CV): 290.6 (41.3) hr · ng/mL
  Cmax, Mean (% CV): 251.1 (66.7) ng/mL
[4]; [9]
  AUCinf, Mean (% CV): 238.3 (45.0) hr · ng/mL
  AUClast, Mean (% CV): 236.7 (45.3) hr · ng/mL
  Cmax, Mean (% CV): 291.9 (55.4) ng/mL
[2]
  BCS class: BCS Class 3
  pKa: 3.9
  solubility (BCS classification): high equilibrium solubility
  pH of maximum solubility: ~3
[2]; not told
  permeability (BCS classification): lower apparent permeability
[3]; [10]
  % GLSM Ratio of AUCinf: 158.20%
  % GLSM Ratio of AUClast: 156.81%
  % GLSM Ratio of Cmax: 83.22%
[3]; [11]
  % GLSM Ratio of AUCinf: 91.56%
  % GLSM Ratio of AUClast: 91.62%
  % GLSM Ratio of Cmax: 95.47%
[3]; bilayer tablet formulation F2
  geometric mean ratio of AUCinf (food effect): 1.58
  geometric mean ratio of Cmax (food effect): 0.83
[3]; fasted
  exposure following F2 compared with F1 with the F/TAF FDC (F3): similar
[3]; [12]
  AUC(0-inf): 0.225 µg·h/mL
  AUC(0-t): 0.224 µg·h/mL
  Cmax: 277 ng/mL
[3]; [13]
  AUC(0-inf): 0.32 µg·h/mL
  AUC(0-t): 0.315 µg·h/mL
  Cmax: 212 ng/mL
[3]; [14]
  AUC(0-inf): 0.207 µg·h/mL
  AUC(0-t): 0.206 µg·h/mL
  Cmax: 253 ng/mL
[3]; tablet formulation F1 (codosed with F3)
  geometric mean ratio of Cmax (food effect): 0.85
[3]; tablet formulation F1 codosed with tablet formulation F3
  geometric mean ratio of AUCinf (food effect): 1.75

## O=C(NCc1c(F)cc(F)cc1F)c1cn2c(c(O)c1=O)C(=O)N1[C@H]3CC[C@H](C3)O[C@@H]1C2 [Compound of Formula I, (2R,5S,13aR)-8-hydroxy-7,9-dioxo-N-(2,4,6-trifluorobenzyl)-2,3,4,5,7,9,13,13a-octahydro-2,5-methanopyrido[1′,2′:4,5]pyrazino[2,1-b][1,3]oxazepine-10-carboxamide]
[4]; 50 mg vs 75 mg dose
  exposure in Formulation F7 compared with Formulation F2: proportionally lower
[4]; [7]
  AUCinf, Mean (% CV): 140,032.4 (21.8) hr · ng/mL
  Cmax, Mean (% CV): 5936.3 (18.3) ng/mL
[4]; [8]
  AUCinf, Mean (% CV): 140,197.7 (23.6) hr · ng/mL
  Cmax, Mean (% CV): 6279.6 (18.3) ng/mL
[4]; [9]
  AUCinf, Mean (% CV): 146,931.6 (31.1) hr · ng/mL
  Cmax, Mean (% CV): 6791.1 (26.4) ng/mL
[4]; tablet formulation F7
  AUCinf higher with high-fat meal than fasted: 24%
  AUCinf higher with moderate fat meal than fasted: 24%
  Cmax higher with high-fat meal than fasted: 13%
  Cmax higher with moderate fat meal than fasted: 20%
[2]
  BCS class: BCS Class 2
  pH of maximum chemical stability: 4
  pKa: 8.6
  solubility (BCS classification): low solubility
  pH of maximum solubility: 10.5
[3]; fasted
  AUCinf higher after F2 than after F1 with F3: 27%
  Cmax higher after F2 than after F1 with F3: 31%
  total exposure higher in F2 than in F1 co-dosed with F3: approximately 30%
[3]; [15]
  AUC(0-inf): 226 µg·h/mL
  AUC(0-t): 217 µg·h/mL
[3]; [16]
  AUC(0-inf): 123 µg·h/mL
  AUC(0-t): 120 µg·h/mL
  Cmax: 5590 ng/mL
[3]; human, plasma, oral, mean, bilayer tablet F2 Compound of Formula I/F/TAF (75/200/25 mg), single dose, fasted, N = 28
  AUC(0-t): 152 µg·h/mL
[3]; plasma, mean, bilayer tablet F2 Compound of Formula I/F/TAF (75/200/25 mg), single dose, fasted, N = 28
  AUCinf: 156,637.5 h · ng/mL
[3]; tablet formulation F2
  AUCinf higher with high-fat meal than fasted: 46%
  Cmax higher with high-fat meal than fasted: 27%
[5]; 100 mg single dose
  changes in clearance and t1/2 following administration with food: no apparent changes
[5]; [17]
  increase of GLSM value of AUCinf with food: 84%
  increase of GLSM value of Cmax with food: 101%
[5]; Fasted
  AUC(0-inf): 118 µg·h/mL
  AUC(0-t): 116 µg·h/mL
  Cmax: 5880 ng/mL
[5]; Fed (high-fat breakfast)
  AUC(0-inf): 214 µg·h/mL
  AUC(0-t): 209 µg·h/mL
  Cmax: 11300 ng/mL

Reference: patent US11744802B2, “Therapeutic compositions for treatment of human immunodeficiency virus” (Gilead Sciences, Inc., priority 2015, dated 2023)
